Where a name gives a salt, the structure may show the parent alone.
Assay: Solubility test at pH=4 from phosphate buffer pH 6 0.1M, by HPLC
Format: physicochemical
Conditions: for solubility at 5 min: aqueous buffer, thermodynamic from solid, phosphate buffer pH 6 0.1M, HPLC, first figure of the S/pH cell, the pH of the sample is the second; for pH (of the solubility sample): second figure of the S/pH cell, pH noted for the solubility sample
Protocol: The results for solubility, S, and pH are shown in the table below and are expressed in mg/ml.
A phosphate buffer, pH6, 0.1M, was prepared by adding 6.15 ml of 0.1M Na2HPO4 to 43.85 ml of 0.1M NaH2PO4. The solution was made up to 100 ml with filtered water using a Millipore system (trade mark).
Reference (Test Product in a Concentration in which the Latter is Soluble and which Acts as an Internal Reference)
About 0.2 mg (in a boat) was weighed out exactly and diluted in 1 ml of H2O/CH3CN: (50:50), i.e. 0.2 mg/ml, then the sample was subjected to ultrasound for 5 minutes.
About 4 mg (in a boat) was weighed out exactly and diluted in 400 μl (i.e. 10 mg/ml) of pH6 phosphate buffer (0.1M), then the sample was subjected to ultrasound for 5 minutes.
The pH was noted and if the pH was below 4, 1 μl of NaOH 1N was added (from 1 μl in 1 μl) until the pH was more than 4, then the pH was noted again. The solution (0.45 μm) was filtered then if necessary diluted with the phosphate buffer pH6. (If the product re-precipitated after diluting, the diluted sample was ignored, the mother solution was used and the solubility was determined at a wavelength other than λmax, to avoid saturating the signal.
The solubility of the compound was then determined by HPLC under the following conditions:
Instrument: Agilent 1100 chromatograph
Column temperature: 30° C. Flow rate: 0.8 ml/min Detection: λ=230 nm Injection volume: 5 μl

| solubility at 5 min [µg/mL] | pH (of the solubility sample) | Structure (SMILES) |
| --- | --- | --- |
| 8810 | 5.4 | CCCCc1cc2ccccn2c1C(=O)c1ccc(CCCN(CC)CC)cc1.Cl [compound 1, (2-butylindolizin-3-yl){4-[3-(diethylamino)propyl]phenyl}methanone hydrochloride] |
| 7470 | 4.07 | CCc1cc2ccccn2c1C(=O)c1ccc(CCCN(CC)CC)cc1.O=C(O)C(=O)O [compound 2, (2-ethylindolizin-3-yl){4-[3-(diethylamino)propyl]phenyl}methanone oxalate] |
| > 10000 | 5.82 | CCCc1cc2ccccn2c1C(=O)c1ccc(CCCN(CC)CC)cc1.Cl [compound 3, {4-[3-(diethylamino)propyl]phenyl}(2-propylindolizin-3-yl)methanone hydrochloride] |
| > 10000 | 4.10 | CCCCc1cc2ccccn2c1C(=O)c1ccc(CCCCN(CC)CC)cc1.O=C(O)C(=O)O [compound 4, (2-butylindolizin-3-yl){4-[4-(diethylamino)butyl]phenyl}methanone oxalate] |
| > 10000 | 3.96 | CCc1cc2ccccn2c1C(=O)c1ccc(CCCCN(CC)CC)cc1.O=C(O)C(=O)O [compound 5, {4-[4-(diethylamino)butyl]phenyl}(2-ethylindolizin-3-yl)methanone oxalate] |
| > 10000 | 5.79 | CCCc1cc2ccccn2c1C(=O)c1ccc(CCCCN(CC)CC)cc1.Cl [compound 6, {4-[4-(diethylamino)butyl]phenyl}(2-propylindolizin-3-yl)methanone hydrochloride] |
| 8570 | 5.65 | CCCCc1cc2ccccn2c1C(=O)c1ccc(CCCN(CCC)CCC)cc1 [compound 7, (2-butylindolizin-3-yl){4-[3-(dipropylamino)propyl]phenyl}methanone hydrochloride] |
| 8600 | 5.82 | CCCN(CCC)CCCc1ccc(C(=O)c2c(CC)cc3ccccn23)cc1 [compound 8, {4-[3-(dipropylamino)propyl]phenyl}(2-ethylindolizin-3-yl)methanone hydrochloride] |
| 5290 | 5.82 | CCCc1cc2ccccn2c1C(=O)c1ccc(CCCN(CCC)CCC)cc1 [compound 9, {4-[3-(dipropylamino)propyl]phenyl}(2-propylindolizin-3-yl)methanone hydrochloride] |
| > 10000 | 5.81 | CCCCc1cc2ccccn2c1C(=O)c1ccc(CCCCN(CCC)CCC)cc1 [compound 10, (2-butylindolizin-3-yl){4-[4-(dipropylamino)butyl]phenyl}methanone hydrochloride] |
| > 10000 | 5.82 | CCCN(CCC)CCCCc1ccc(C(=O)c2c(CC)cc3ccccn23)cc1 [compound 11, {4-[4-(dipropylamino)butyl]phenyl}(2-ethylindolizin-3-yl)methanone hydrochloride] |
| 1610 | 7.2 | CCCN(CCC)CCCc1ccc(C(=O)c2c(C)cc3ccccn23)cc1 [compound 13, {4-[3-(dipropylamino)propyl]phenyl}(2-methylindolizin-3-yl)methanone hydrochloride] |
| 2330 | 4.10 | CCCN(CCC)CCCCc1ccc(C(=O)c2c(C(C)C)cc3ccccn23)cc1 [compound 14, {4-[4-(dipropylamino)butyl]phenyl}(2-isopropylindolizin-3-yl)methanone oxalate] |
| 1560 | 6.33 | CCCN(CCC)CCCCc1ccc(C(=O)c2c(C)cc3ccccn23)cc1 [compound 15, {4-[4-(dipropylamino)butyl]phenyl}(2-methylindolizin-3-yl)methanone hydrochloride] |
| > 10000 | 5.81 | CCCc1cc2ccccn2c1C(=O)c1ccc(CCCCN(CCC)CCC)cc1 [compound 16, {4-[4-(dipropylamino)butyl]phenyl}(2-propylindolizin-3-yl)methanone hydrochloride] |
| > 10000 | 4.88 | CCCCc1cc2ccccn2c1C(=O)c1ccc(CCCN(CCCC)CCCC)cc1 [compound 17, (2-butylindolizin-3-yl){4-[3-(dibutylamino)propyl]phenyl}methanone hydrochloride] |

| solubility at 5 min [µg/mL] | pH (of the solubility sample) | Structure (SMILES) |
| --- | --- | --- |
| 6510 | 5.42 | CCCCN(CCCC)CCCc1ccc(C(=O)c2c(CC)cc3ccccn23)cc1 [compound 18, {4-[3-(dibutylamino)propyl]phenyl}(2-ethylindolizin-3-yl)methanone hydrochloride] |
| 4070 | 5.27 | CCCCN(CCCC)CCCc1ccc(C(=O)c2c(CCC)cc3ccccn23)cc1 [compound 19, {4-[3-(dibutylamino)propyl]phenyl}(2-propylindolizin-3-yl)methanone hydrochloride] |
| 2950 | 4.02 | CCCCc1cc2ccccn2c1C(=O)c1ccc(CCCCN(CCCC)CCCC)cc1 [compound 20, (2-butylindolizin-3-yl){4-[4-(dibutylamino)butyl]phenyl}methanone oxalate] |
| 6900 | 4.08 | CCCCN(CCCC)CCCCc1ccc(C(=O)c2c(CC)cc3ccccn23)cc1 [compound 21, {4-[4-(dibutylamino)butyl]phenyl}(2-ethylindolizin-3-yl)methanone oxalate] |
| 4080 | 4.58 | CCCCN(CCCC)CCCCc1ccc(C(=O)c2c(CCC)cc3ccccn23)cc1 [compound 22, {4-[4-(dibutylamino)butyl]phenyl}(2-propylindolizin-3-yl)methanone oxalate] |
| > 10000 | 6.06 | CCCCc1cc2ccccn2c1C(=O)c1ccc(CCCN(CC)CCC)cc1 [compound 23, (2-butylindolizin-3-yl)(4-{3-[ethyl(propyl)amino]propyl}phenyl)methanone hydrochloride] |
| 5920 | 4.51 | CCCN(CC)CCCc1ccc(C(=O)c2c(CC)cc3ccccn23)cc1 [compound 24, (2-ethylindolizin-3-yl)(4-{3-[ethyl(propyl)amino]propyl}phenyl)methanone oxalate] |
| 1710 | 6.4 | CCCN(CC)CCCc1ccc(C(=O)c2c(C(C)C)cc3ccccn23)cc1 [compound 25, (4-{3-[ethyl(propyl)amino]propyl}phenyl)(2-isopropylindolizin-3-yl)methanone hydrochloride] |
| 1490 | 7.14 | CCCN(CC)CCCc1ccc(C(=O)c2c(C)cc3ccccn23)cc1 [compound 26, (4-{3-[ethyl(propyl)amino]propyl}phenyl)(2-methylindolizin-3-yl)methanone hydrochloride] |
| 2170 | 6.5 | CCCN(CC)CCCCc1ccc(C(=O)c2c(C(C)C)cc3ccccn23)cc1 [compound 27, (4-{4-[ethyl(propyl)amino]butyl}phenyl)(2-isopropylindolizin-3-yl)methanone oxalate] |
| 1540 | 7.01 | CCCN(CC)CCCCc1ccc(C(=O)c2c(C)cc3ccccn23)cc1 [compound 28, (4-{4-[ethyl(propyl)amino]butyl}phenyl)(2-methylindolizin-3-yl)methanone hydrochloride] |
| > 10000 | 5.94 | CCCc1cc2ccccn2c1C(=O)c1ccc(CCCN(CC)CCC)cc1 [compound 29, (4-{3-[ethyl(propyl)amino]propyl}phenyl)(2-propylindolizin-3-yl)methanone hydrochloride] |
| > 10000 | 5.85 | CCCCc1cc2ccccn2c1C(=O)c1ccc(CCCCN(CC)CCC)cc1 [compound 30, (2-butylindolizin-3-yl)(4-{4-[ethyl(propyl)amino]butyl}phenyl)methanone hydrochloride] |
| > 10000 | 4.05 | CCCN(CC)CCCCc1ccc(C(=O)c2c(CC)cc3ccccn23)cc1 [compound 31, (2-ethylindolizin-3-yl)(4-{4-[ethyl(propyl)amino]butyl}phenyl)methanone oxalate] |
| 5640 | 5.60 | CCCc1cc2ccccn2c1C(=O)c1ccc(CCCCN(CC)CCC)cc1 [compound 32, (4-{4-[ethyl(propyl)amino]butyl}phenyl)(2-propylindolizin-3-yl)methanone hydrochloride] |
| 3880 | 5.36 | CCCCc1cc2ccccn2c1C(=O)c1ccc(CCCN(CCC)CCCC)cc1 [compound 33, (2-butylindolizin-3-yl)(4-{3-[butyl(propyl)amino]propyl}phenyl)methanone oxalate] |
